Experimental data as given in patent US20040198716A1, “Cysteine protease inhimbitors” (priority 2001, published 2004).

How the values were obtained:
α-chymotrypsin = α-chymotrypsin (Bos taurus, UniProt P00766, DEL14-15/DEL147-148); experiment: Cross-reactivity protease inhibition assay (QuantiCleave), chymotrypsin; format: biochemical; conditions: ratio Abs450nm with inhibitor / without inhibitor; 100 μM compound
Method: (§1) To evaluate whether inhibition was specific to caspase-3 or applicable to other cysteine proteases or other proteases, inhibitor molecules were assayed for their capacity to inhibit additional non-caspase proteases. Three proteases, TPCK-trypsin, α-chymotrypsin and papain, were used to test for protease inhibition cross-reactivity. Protease inhibition assays were performed in 96-well flat-bottomed micro-titer plates with the QuantiCleave™ protease assay kit (Pierce, Rockford, Ill.) according to the manufacturer's instructions. Briefly, the assay conditions contained 100 μM compound, 2 mg/mL of succinylated-casein and 0.15 mg/mL of the protease. The assay incubated in a final volume of 150 μLs 0.05 M sodium borate pH 8.5 buffer (NaB-buffer) for 20 minutes at 25° C. After the protease reaction, 50 μLs of a trinitrobenzenesulfonic acid (TNBSA) solution (1:15, TNBSA:NaB-buffer) was added to each reaction and further incubated for 20 minutes at 25° C. Absorbance values at 450 nm were read in an Emax (Molecular Devices, Sunnyvale, Calif.) micro plate reader. Appropriate controls were performed, including known inhibitors (soybean trypsin inhibitor, aminoethyl-benzenesulfonic acid and leupeptin) for the proteases.
(§2) Relative activities in the presence of inhibitor were calculated by taking the ratio of absorbance for a reaction containing inhibitor to the absorbance for a reaction without inhibitor. Significant inhibition was determined by testing the null hypothesis of equivalence between the mean absorbance of reactions containing inhibitor and the mean absorbance of reactions without inhibitor (2 tailed t-test, 2 df).
(§3) The results are given in Table V in terms of cross-reactivities, relative activity and significant difference of 100 μM protease inhibitors on the proteases trypsin, chymotrypsin and papain.

papain = target: T1, papain (Carica papaya, UniProt P00784); experiment: Cross-reactivity protease inhibition assay (QuantiCleave), papain; format: biochemical; conditions: ratio Abs450nm with inhibitor / without inhibitor; 100 μM compound
T1 sequence (P00784 134-345): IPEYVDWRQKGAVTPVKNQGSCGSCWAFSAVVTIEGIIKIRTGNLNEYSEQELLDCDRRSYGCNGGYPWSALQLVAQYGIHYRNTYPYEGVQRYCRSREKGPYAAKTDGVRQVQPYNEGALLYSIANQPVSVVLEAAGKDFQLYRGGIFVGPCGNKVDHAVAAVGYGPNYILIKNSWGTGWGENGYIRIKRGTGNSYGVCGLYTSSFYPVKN
Method: as §1, §2, §3

cysteine protease = experiment: Cysteine protease inhibitory activity, no method given
TPCK-trypsin = target: T2, TPCK-trypsin (Bos taurus, UniProt P00760); experiment: Cross-reactivity protease inhibition assay (QuantiCleave), trypsin; format: biochemical; conditions: ratio Abs450nm with inhibitor / without inhibitor; 100 μM compound
T2 sequence (P00760 24-246): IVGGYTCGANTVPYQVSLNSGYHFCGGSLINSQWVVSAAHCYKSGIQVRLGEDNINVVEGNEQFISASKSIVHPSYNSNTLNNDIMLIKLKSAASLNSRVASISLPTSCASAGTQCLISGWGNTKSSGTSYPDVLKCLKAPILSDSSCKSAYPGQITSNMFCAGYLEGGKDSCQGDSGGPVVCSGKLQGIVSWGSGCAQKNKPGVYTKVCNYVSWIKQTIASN
Method: as §1, §2, §3

[1] = target: T3, human recombinant caspase-3 (Homo sapiens, UniProt P42574); experiment: In vitro high throughput caspase-3 assay; format: biochemical; conditions: for Percent Activity: percentage of the positive control, 20-250 μM test compound, lower = better inhibition, negative = better than control caspase inhibitor; for Caspase-3 Activity: relative activity as a fraction, values match Table II percent activity divided by 100; for Ki: calculated from IC50 according to Equation 1, read-out: Ki(app); for IC50: fixed substrate concentration of 55 μM, inhibitors 75 to 0.067 μM in duplicate
T3 construct: purchased Sigma
T3 sequence (P42574 29-175 limits assumed): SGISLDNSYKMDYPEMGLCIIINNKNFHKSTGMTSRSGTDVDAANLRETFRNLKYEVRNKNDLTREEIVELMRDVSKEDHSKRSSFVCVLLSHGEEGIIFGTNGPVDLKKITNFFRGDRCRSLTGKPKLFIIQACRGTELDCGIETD
T3 sequence (P42574 176-277 limits assumed): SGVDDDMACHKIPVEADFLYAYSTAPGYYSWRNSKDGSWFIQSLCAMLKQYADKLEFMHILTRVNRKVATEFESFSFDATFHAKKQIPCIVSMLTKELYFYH
Method: Purified Human recombinant caspase-3, fluorescence labeled substrate (Acetyl-Asp-Glu-Val-Asp-7-amino-4-trifluoromethyl coumarin), and known inhibitor (Z-Asp-Glu-Val-Asp-fluoromethyl ketone) can be purchased from Sigma Chemical Co. (St. Louis, Mo.). The enzyme reactions are carried out at room temperature in 10 mM PIPES pH=7.4, 2 mM EDTA, 0.1% CHAPS, 5 mM DTT reaction buffer. Each well on the 96 well plate contains the above reaction buffer plus 55 μM fluorescence labeled substrate, 0.125 μg caspase-3, and 20-250 μM test compound. Positive and negative controls are present on each assay plate. A standard curve is generated using 7-amino-4-trifluoromethyl coumarin in the concentration range from 0.15 μM to 5.0 μM. The reactions are preferably read every 0.5 hours using a fluorescence microtiter plate reader set for 390 nm excitation and 538 nm emission for the first 4 hours after which the plates are left at room temperature overnight. One reading is taken the next morning as a final measurement.
To determine the caspase inhibitory activity of these compounds, the in vitro high throughput caspase-3 assay presented herein was utilized. Purified human recombinant caspase-3, fluorescence labeled substrate (Acetyl-Asp-Glu-Val-Asp-7-amino-4-trifluoromethyl coumarin), and known inhibitor (Z-Asp-Glu-Val-Asp-fluoromethyl ketone) were purchased from Sigma. The enzyme reactions were carried out at room temperature in 10 mM PIPES pH=7.4, 2 mM EDTA, 0.1% CHAPS, 5 mM DTT reaction buffer. Each well on the 96 well plate contained the above reaction buffer plus 55 μM fluorescence labeled substrate, 0.125 μg caspase-3, and 20-250 μM test compound. Positive and negative controls were present on each assay plate. A standard curve was generated using 7-amino-4-trifluoromethyl coumarin in the concentration range from 0.15 μM to 5.0 μM. The reactions were read every 0.5 hours using a fluorescence microtiter plate reader set for 390 nm excitation and 538 nm emission for the first 4 hours after which the plates were left at room temperature overnight. One reading was taken the next morning as a final measurement.
Ki determinations were carried out using the above assay system. […] Ki(app) was calculated according to Equation 1: [formula]
The concentration of inhibitors ranged from 75 to 0.067 μM with each inhibitor concentration assayed in duplicate. The Km for the substrate was determined from a standard Lineweaver-Burke plot.

[2] = target: T4, Human Rhinovirus serotype 1A 3C Protease (Human rhinovirus 1A, UniProt P23008); experiment: 3C Protease Biochemical Assay (FRET); conditions: 30° C., 2-6uM substrate, 416 nM 3CP
T4 construct: used to clone the 3C Protease into the expression vector pET16-b; made in house; host or cells: E. coli BL21-DE3-pLys-S
T4 sequence (P23008 1515-1697): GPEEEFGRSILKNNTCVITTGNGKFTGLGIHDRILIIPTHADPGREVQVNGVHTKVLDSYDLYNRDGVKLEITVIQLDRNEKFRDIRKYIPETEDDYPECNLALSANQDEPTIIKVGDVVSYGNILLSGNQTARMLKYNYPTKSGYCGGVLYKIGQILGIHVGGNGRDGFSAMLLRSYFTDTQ
Method: Human Rhinovirus serotype 1A (ATCC) was used to clone the 3C Protease into the expression vector pET16-b and transformed for production into the E. coli strain BL21-DE3-pLys-S. 3C Protease expression was induced with 1 mM IPTG at 25° C. and purified from the soluble protein extract by chromatography on a SourceQ (Pharmacia) followed by gel filtration. HRV 3CP activity was measured by fluorescence resonance energy transfer using a dimodified decapeptide substrate MOC-[…]DNP-NH2 (7-methoxy coumarin-4-acetic acid fluorochrome and dinitrophenol quencher) with a Km value of 16.8 μM. Inhibition was measured as a change in initial velocity (V0) as a function of inhibitor (I) concentration and substrate (S) concentration. […] Fluorescence was monitored by excitation at 328 nm and emission at 393 nm with 10 nm cutoffs. Data were analyzed with the nonlinear regression analysis program EnzFitter (BioSoft) with the equation:
Ki=(I/((VmaxxS)/V0)/Ks)−I−S
Substrate concentrations used were lower than the Km of the substrate (16.8 uM) so no corrections for an S/Km term were used.

[3] = test system: Human Rhinovirus serotype 1A; experiment: Cell Culture 3C-Protease Activity Assay (protection of rhinovirus-infected cells); format: cell-based; conditions: for IC50: HeLa-H1 cells infected with Human Rhinovirus serotype 1A, 48 hours, alamarBlue cell survival, dilution series 250-0.98 μM, several values per compound = repeat determinations
Method: (§4) In this assay, 96 well micro titer plates were seeded with 10^4 HeLa-H1 (ATCC) cells per well and incubated in DMEM+10% FBS (Gibco) for 24 hours at 37° C., saturated humidity and 5% CO2. Human Rhinovirus serotype 1A (ATCC) were titered to produce a 30% cell kill and added to some wells of a 96 well plate, other wells were mock infected with media only, followed by incubation at 33° C., saturated humidity and 5% CO2 for 1 hour. Compounds were dissolved in DMSO, diluted in DMEM and added in a 9 step 2-fold dilution series (250, 125, 62.5, 31.25, 15.63, 7.81, 3.91, 1.95, 0.98 μM) 1 hour after virus treatment. Plates were incubated for 48 hours at 33° C., saturated humidity and 5% CO2 in a final volume of 100 μL FBS free DMEM. Cell survival was measured by the addition of 10 μL of alamarBlue™ (BioSource), incubation at 33° C. for 45 minutes and reading in a fluorescence plate reader, excitation: 544 nm, emission: 590 nm. The inhibitory concentration 50% (IC50) was calculated as the concentration of compound that increased the percentage fluorescence in the compound-treated virus-infected cells to 50% of that produced by compound-free, uninfected cells. The toxicity concentration 50% (TC50) was calculated as the concentration of compound that decreased the percentage fluorescence in the compound-treated, uninfected cells to 50% of the compound-free, uninfected cells. The therapeutic index (Ti) was calculated by dividing the […].

HeLa-H1 cells = experiment: Toxicity in uninfected cells of the cell culture 3C-protease assay; format: cell-based; design: key to TC50: —: the hyphens indicate no value was able to be calculated (i.e. the drug response did not cross the 50% point); conditions: compound-treated uninfected HeLa-H1 cells, 48 hours, alamarBlue, dilution series 250-0.98 μM, several values per compound = repeat determinations; for CC50: read-out: TC50 (the source's name)
Method: as §4

## NCCc1ccc(S(=O)(=O)F)cc1 [AEBSF, reference compound]
α-chymotrypsin
  α-Chymotrypsin Activity: 0.466

## CC(=O)N[C@@H](CC(C)C)C(=O)N[C@@H](CC(C)C)C(=O)N[C@H](C=O)CCCNC(=N)N [Leupeptin, leupeptin, reference compound]
papain
  Papain Activity: 0.095

## CC(C)=CC[C@H](O)C1=CC(=O)c2c(O)ccc(O)c2C1=O [alkannin]
Cysteine protease
  cysteine protease inhibitory activity: exhibit cysteine protease inhibitory activity

## O=c1cc(-c2ccccc2)oc2cc(O)cc(O)c12 [cpi0124]
TPCK-trypsin
  TPCK-Trypsin Activity: 1.075
papain
  Papain Activity: 0.445
[1]
  Percent Activity: 51.49%
  Caspase-3 Activity: 0.515
α-chymotrypsin
  α-Chymotrypsin Activity: 1.029

## O=C1C=CC(=O)c2c(O)ccc(O)c21 [cpi0131]
TPCK-trypsin
  TPCK-Trypsin Activity: 0.819
[2]
  Ki: 307 µM
papain
  Papain Activity: 0.505
[1]
  Percent Activity: −1.78%
  Caspase-3 Activity: −0.0178
α-chymotrypsin
  α-Chymotrypsin Activity: 0.915

## CC(C)=CCC1=C(O)C(=O)c2ccccc2C1=O [cpi0133]
TPCK-trypsin
  TPCK-Trypsin Activity: 1.196
papain
  Papain Activity: 0.897
[1]
  Percent Activity: 48.29%
  Caspase-3 Activity: 0.483
α-chymotrypsin
  α-Chymotrypsin Activity: 1.081

## O=C(O)CN(CC(=O)O)Cc1cc2c(c(O)c1O)C(=O)c1ccccc1C2=O [cpi0136.0009]
[3]
  IC50: 0.2 µM
[1]
  Ki: 6.16 µM
  IC50: 38.8 µM
  Percent Activity: −0.4239%
HeLa-H1 cells
  CC50: > 30 µM

## O=C(O)CCNc1ccc(O)c2c1C(=O)c1ccccc1C2=O [cpi0136.0012]
[3]
  IC50: 30 µM
[1]
  Ki: 1.24 µM
  IC50: 7.82 µM
  Percent Activity: 7.846%
HeLa-H1 cells
  CC50: > 30 µM

## COC(=O)CCNc1ccc(O)c2c1C(=O)c1ccccc1C2=O [cpi0136.NS131731]
HeLa-H1 cells
  TC50: —, and —

## CCn1cc(C(=O)O)c(=O)c2ccc(C)nc21 [cpi0176, nalidixic acid, reference compound]
[2]
  Ki: 195 µM
[3]
  potency as an antirhinoviral agent relative to potency as an antibiotic agent: 10 fold
HeLa-H1 cells
  TC50: —, and —

## COc1cccc2occc(=O)c12 [cpi0409]
HeLa-H1 cells
  TC50: —, and —

## CC(C)=CC[C@@H](O)C1=CC(=O)c2c(O)ccc(O)c2C1=O [shikonin]
Cysteine protease
  cysteine protease inhibitory activity: exhibit cysteine protease inhibitory activity

B1: STI: Soybean Trypsin Inhibitor, known inhibitor control (protein, UniProt P01070 25-205, looked up)
Trypsin inhibitor A: DFVLDNEGNPLENGGTYYILSDITAFGGIRAAPTGNERCPLTVVQSRNELDKGIGTIISSPYRIRFIAEGHPLSLKFDSFAVIMLCVGIPTEWSVVEDLPEGPAVKIGENKDAMDGWFRLERVSDDEFNNYKLVFCPQQAEDDKCGDIGISIDHDDGTRRLVVSKNKPLVVQFQKLDKESL
TPCK-trypsin
  TPCK-Trypsin Activity: 0.017
